# Key:
# tubulin = details: cited from earlier work
# [1] = tested on: human BT-20 breast cancer cells; experiment: Apoptosis of breast cancer cells by transmission electron microscopy; assay type: cell-based; details: BT-20 cells, FIG. 6
# Method: (§1) The effects of spiroketal pyrans on the survival of human breast cancer cells were examined in vitro. Cells were incubated at 37° C. for the indicated time periods with the title compounds. At the end of the incubation, cells were washed twice with PBS and fixed in 2% paraformaldehyde and examined by microscopy.
# [2] = tested on: human breast cancer cells; experiment: Confocal laser scanning microscopy of microtubules (alpha-tubulin immunofluorescence) and mitotic index; assay type: cell-based; parameters: microtubule organization and cell morphology: dose or concentration left out as unconfirmed; details: for microtubule organization and cell morphology: confocal microscopy, FIG. 7
# Method: as §1
# The effects of SPIKET-P1 on human breast cancer cells was also examined using confocal laser scanning microscopy^14. After fixing, the cells were permeabilized and non-specific binding sites were blocked with 2.5% BSA in PBS containing 0.1% Triton X-100 for 30 minutes. Tubulin expression was examined by immunofluorescence using a monoclonal antibody against α-tubulin (Sigma Chemical Co, St. Louis, Mo.) at a dilution of 1:1000 and an lanti-mouse IgG conjugated to FITC. Cells were washed in PBS and counterstained with toto-3 (Molecular Probes Inc., Eugene, Oreg.) for 10 minutes at a dilution of 1:1000. Cells were washed again with PBS and the coverslips were mounted with Vectashield (Vector Labs, Burlingame, Calif.) and viewed with a confocal microscope (Bio-Rad MRC 1024) mounted in a Nikon Labhophot upright microscope.
# Digital images were saved on a Jaz disk and processed with Adobe Photoshop software (Adobe Systems, Mountain View, Calif.).
# Vehicle-treated control cells are adherent with a well organized microtubule cytoskeleton, seen in the control (FIG. 7A) in green. […] Additionally, membrane blebbing and nuclear fragmentation was observed. Large vacuoles were present within treated cells. SPIKET-P-1 also affected the mitotic index, 2.25% of control cells were in mitosis whereas 0.0% of treated cells were in mitosis (23/1024 vs 0/1000, respectively).
Compound,inhibition of binding of vinc alkaloids / colchicin to tubulin (tubulin),induction of apoptosis [1],microtubule organization and cell morphology [2],microtubule organization and cell morphology ([2]; listed as SPA-1),"mitotic index (cells in mitosis) ([2]; treated cells 0/1000, control cells 2.25% (23/1024)) [%]"
Spongistatin,inhibit the binding of vinc alkaloids (but not colchicin) to tubulin,,,,
"OC1CC(CCOCc2ccccc2)OC2(C1)CC(O)CC(CCOCc1ccccc1)O2 (stereo not shown) [NP-25, 1,13-dibenzyloxy-5,9-dihydroxy-spiroketal]",,induce apoptosis in human breast cancer cells,,,
"c1ccc(COC[C@H]2CCCC3(CCC[C@H](COCc4ccccc4)O3)O2)cc1 [SPIKET-P1-P, Benzyl-protected SPIKET-P1]",,induce apoptosis in human breast cancer cells,,,
"OC[C@H]1CCCC2(CCC[C@H](CO)O2)O1 [SPIKET-P1, [(2R,8R)-8-(hydroxymethyl)-1,7-dioxaspiro[5,5]undec-2-yl]methan-1-ol]",,induce apoptosis in human breast cancer cells,"destruction of the microtubule organization, membrane blebbing, and nuclear fragmentation consistent with apoptosis","fewer, less organized microtubules",0.0

# Source: US6512003B2, “Synthetic spiroketal pyranes as potent anti-cancer agents and use” (Parker Hughes Institute, priority 1998, dated 2003)
